Here are results for 2 molecules from patent US11186577B2, “Vasopressin receptor antagonists and products and methods related thereto” (BlackThorn Therapeutics, Inc., priority 2017, dated 2021).

Structures are written as SMILES.

In experiment [1] the target is human Arginine Vasopressin Receptor 1a (AVPR1a) (Homo sapiens (Human), UniProt P37288). Kind of experiment: Vasopressin V1A receptor antagonist assay (AVP-evoked calcium, FLIPR, CHO-AVPR1a cells). Format: cell-based. To be noted: read-out: V1a IC50. Summed up:
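Antagonism measured as reduction of AVP (EC80, set each assay day) calcium response on FLIPR in dye-loaded CHO-AVPR1a cells. Compounds, 3 μM top in 10-point 1:3 dilution, in duplicate, added 15 min before agonist at 37° C.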

Experiment [2] concerns the target human Arginine Vasopressin Receptor 1b (AVPR1b) (Homo sapiens (Human), UniProt P47901). The experiment in a line: Vasopressin V1B receptor antagonist assay (AVP-evoked calcium, FLIPR, CHO-AVPR1b cells). Format: cell-based. The procedure, abridged:
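CHO cells expressing human AVPR1b, loaded with Calcium-6 dye, were preincubated with compound for 15 min at 37 °C, then challenged with AVP at its daily-determined EC80. Calcium fluorescence was followed for 3 min on FLIPR; 10-point, 1:3 concentration curves gave antagonism as reduced AVP response.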

Sequence of human Arginine Vasopressin Receptor 1a (AVPR1a) (P37288 whole entry): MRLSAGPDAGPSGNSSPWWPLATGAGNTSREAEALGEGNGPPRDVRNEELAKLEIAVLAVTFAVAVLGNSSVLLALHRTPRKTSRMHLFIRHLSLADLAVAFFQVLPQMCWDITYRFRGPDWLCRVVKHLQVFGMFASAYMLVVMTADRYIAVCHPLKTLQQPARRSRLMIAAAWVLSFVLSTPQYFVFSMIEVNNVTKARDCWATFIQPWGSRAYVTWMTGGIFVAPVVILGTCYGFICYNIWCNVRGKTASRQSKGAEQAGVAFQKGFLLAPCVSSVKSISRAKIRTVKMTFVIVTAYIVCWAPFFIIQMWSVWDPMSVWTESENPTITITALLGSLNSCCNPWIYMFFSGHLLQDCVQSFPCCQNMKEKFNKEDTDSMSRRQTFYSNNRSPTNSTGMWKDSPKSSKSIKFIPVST
Sequence of human Arginine Vasopressin Receptor 1b (AVPR1b) (P47901 whole entry): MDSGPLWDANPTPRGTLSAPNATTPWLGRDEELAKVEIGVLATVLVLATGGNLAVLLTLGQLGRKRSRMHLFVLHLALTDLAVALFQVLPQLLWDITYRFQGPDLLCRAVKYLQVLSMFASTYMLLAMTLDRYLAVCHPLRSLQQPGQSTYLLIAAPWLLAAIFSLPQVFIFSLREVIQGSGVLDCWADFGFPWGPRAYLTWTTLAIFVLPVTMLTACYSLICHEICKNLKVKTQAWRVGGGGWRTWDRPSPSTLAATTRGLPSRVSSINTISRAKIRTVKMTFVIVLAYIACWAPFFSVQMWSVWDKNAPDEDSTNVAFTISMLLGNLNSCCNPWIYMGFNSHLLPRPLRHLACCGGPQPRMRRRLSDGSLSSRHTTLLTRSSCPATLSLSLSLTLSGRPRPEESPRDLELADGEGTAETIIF

By IC50 is commonly meant the point on the concentration scale where inhibition reaches its midpoint. Turning to `COC(=O)N1Cc2cc(Cl)ccc2-n2c(C3CC4(C3)CN(c3ncccn3)C4)nnc2C1C` (stereo not shown) [compound 166], the IC50 was < 100 nM in experiment [1] and > 1000 nM in experiment [2].

Turning to `CC(C)OC(=O)N1Cc2cc(Cl)ccc2-n2c(C3CC4(C3)CN(c3ncccn3)C4)nnc2C1C` (stereo not shown) [compound 167], the half-inhibitory concentration (IC50) was < 100 nM in experiment [1] and > 1000 nM in experiment [2].
